ChEMBL document CHEMBL5465560, “Selectivity Literature for EUbOPEN Chemogenomic Library” (2024)
Values belong to the molecule of their own block, whether it stands above or below them.

Key:
[1] = target: Serine/threonine-protein kinase 32A (Homo sapiens) (UniProt Q8WU08); assay: Selectivity interaction (Ambit KINOMEscan and KiNATiv profiling in Jurkat cells) EUB0000090b STK32A; type: cell-based; details: at 1 µM
[2] = target: T1, Tyrosine-protein kinase Mer (Homo sapiens) (UniProt Q12866); assay: Selectivity interaction (Kinase panel (DSF assay)) EUB0001559a MERTK
T1 sequence (whole entry): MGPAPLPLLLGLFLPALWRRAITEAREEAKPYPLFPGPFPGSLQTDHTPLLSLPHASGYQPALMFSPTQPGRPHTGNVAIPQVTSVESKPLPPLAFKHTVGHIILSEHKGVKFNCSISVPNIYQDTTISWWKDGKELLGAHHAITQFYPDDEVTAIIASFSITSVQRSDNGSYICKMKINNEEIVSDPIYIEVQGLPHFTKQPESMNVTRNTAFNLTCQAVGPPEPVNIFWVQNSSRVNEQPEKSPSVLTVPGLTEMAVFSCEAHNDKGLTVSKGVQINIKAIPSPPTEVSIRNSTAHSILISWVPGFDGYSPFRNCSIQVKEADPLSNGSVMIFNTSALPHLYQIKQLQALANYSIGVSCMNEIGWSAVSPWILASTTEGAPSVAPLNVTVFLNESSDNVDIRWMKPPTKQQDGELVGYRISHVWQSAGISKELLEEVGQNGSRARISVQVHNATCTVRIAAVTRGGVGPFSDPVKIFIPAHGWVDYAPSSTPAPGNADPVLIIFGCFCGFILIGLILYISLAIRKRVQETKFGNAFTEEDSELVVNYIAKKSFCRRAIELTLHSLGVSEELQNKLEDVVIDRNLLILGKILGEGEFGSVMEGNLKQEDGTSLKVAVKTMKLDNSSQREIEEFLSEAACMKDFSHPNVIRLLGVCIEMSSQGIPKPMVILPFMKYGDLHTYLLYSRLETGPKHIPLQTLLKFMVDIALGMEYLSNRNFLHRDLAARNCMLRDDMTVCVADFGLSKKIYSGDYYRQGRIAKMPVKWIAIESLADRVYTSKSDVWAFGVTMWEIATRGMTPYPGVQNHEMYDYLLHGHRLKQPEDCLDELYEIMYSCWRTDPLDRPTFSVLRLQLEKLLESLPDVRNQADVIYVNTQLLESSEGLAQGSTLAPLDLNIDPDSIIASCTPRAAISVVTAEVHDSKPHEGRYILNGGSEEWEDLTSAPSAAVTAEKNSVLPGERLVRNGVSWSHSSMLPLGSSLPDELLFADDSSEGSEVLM

[3] = target: G protein-coupled receptor kinase 4 (Homo sapiens) (UniProt P32298); assay: Selectivity interaction (KinomeScan (DiscoverX)) EUB0000618a GRK4; details: at 10 µM
Sequence of G protein-coupled receptor kinase 4 (Homo sapiens) (P32298 whole entry, looked up): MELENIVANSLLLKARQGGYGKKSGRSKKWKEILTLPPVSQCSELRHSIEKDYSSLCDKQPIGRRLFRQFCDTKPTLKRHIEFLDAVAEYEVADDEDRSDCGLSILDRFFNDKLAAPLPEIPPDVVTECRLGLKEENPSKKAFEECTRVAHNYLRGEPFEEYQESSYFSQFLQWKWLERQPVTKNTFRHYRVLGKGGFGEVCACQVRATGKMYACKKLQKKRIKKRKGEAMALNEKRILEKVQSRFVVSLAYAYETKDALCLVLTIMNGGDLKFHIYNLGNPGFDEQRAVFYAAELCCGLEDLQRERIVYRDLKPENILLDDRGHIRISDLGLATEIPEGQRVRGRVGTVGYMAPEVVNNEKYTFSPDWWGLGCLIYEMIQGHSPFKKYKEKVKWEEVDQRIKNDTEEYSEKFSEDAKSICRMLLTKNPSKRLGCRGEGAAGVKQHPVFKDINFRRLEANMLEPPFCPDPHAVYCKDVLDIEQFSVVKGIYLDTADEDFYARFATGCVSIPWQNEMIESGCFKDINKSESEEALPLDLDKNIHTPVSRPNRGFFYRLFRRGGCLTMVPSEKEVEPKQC

[4] = target: T2, NUAK family SNF1-like kinase 2 (Homo sapiens) (UniProt Q9H093); assay: Selectivity interaction (KinomeScan (DiscoverX)) EUB0000618a NUAK2; details: at 10 µM
T2 sequence (whole entry): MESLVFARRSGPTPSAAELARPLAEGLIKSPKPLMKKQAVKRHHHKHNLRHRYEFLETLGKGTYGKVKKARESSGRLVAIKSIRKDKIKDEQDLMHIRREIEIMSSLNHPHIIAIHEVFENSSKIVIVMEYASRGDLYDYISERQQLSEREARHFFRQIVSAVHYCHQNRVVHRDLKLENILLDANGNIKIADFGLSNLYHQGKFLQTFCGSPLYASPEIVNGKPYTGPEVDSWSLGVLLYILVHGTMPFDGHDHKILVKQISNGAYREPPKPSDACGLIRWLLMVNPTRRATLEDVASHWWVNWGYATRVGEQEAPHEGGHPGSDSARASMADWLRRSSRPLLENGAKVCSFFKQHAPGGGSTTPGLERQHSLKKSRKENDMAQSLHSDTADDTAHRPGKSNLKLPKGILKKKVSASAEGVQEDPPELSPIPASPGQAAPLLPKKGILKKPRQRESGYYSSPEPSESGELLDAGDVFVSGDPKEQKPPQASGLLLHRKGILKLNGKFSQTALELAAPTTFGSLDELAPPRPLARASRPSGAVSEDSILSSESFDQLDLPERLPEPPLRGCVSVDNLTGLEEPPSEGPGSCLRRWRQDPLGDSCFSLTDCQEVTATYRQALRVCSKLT

[5] = target: Mitogen-activated protein kinase 14 (Homo sapiens, UniProt Q16539); assay: Selectivity interaction (Kinase panel (DSF assay)) EUB0001558a MAPK14
[6] = target: Microtubule-associated serine/threonine-protein kinase 2 (Homo sapiens) (UniProt Q6P0Q8); assay: Selectivity interaction (ActivX KiNativ screen (kinase selectivity in THP-1 cell lysates)) EUB0000639a MAST2; type: subcellular; details: lysate
Sequence of Microtubule-associated serine/threonine-protein kinase 2 (Homo sapiens) (Q6P0Q8 whole entry): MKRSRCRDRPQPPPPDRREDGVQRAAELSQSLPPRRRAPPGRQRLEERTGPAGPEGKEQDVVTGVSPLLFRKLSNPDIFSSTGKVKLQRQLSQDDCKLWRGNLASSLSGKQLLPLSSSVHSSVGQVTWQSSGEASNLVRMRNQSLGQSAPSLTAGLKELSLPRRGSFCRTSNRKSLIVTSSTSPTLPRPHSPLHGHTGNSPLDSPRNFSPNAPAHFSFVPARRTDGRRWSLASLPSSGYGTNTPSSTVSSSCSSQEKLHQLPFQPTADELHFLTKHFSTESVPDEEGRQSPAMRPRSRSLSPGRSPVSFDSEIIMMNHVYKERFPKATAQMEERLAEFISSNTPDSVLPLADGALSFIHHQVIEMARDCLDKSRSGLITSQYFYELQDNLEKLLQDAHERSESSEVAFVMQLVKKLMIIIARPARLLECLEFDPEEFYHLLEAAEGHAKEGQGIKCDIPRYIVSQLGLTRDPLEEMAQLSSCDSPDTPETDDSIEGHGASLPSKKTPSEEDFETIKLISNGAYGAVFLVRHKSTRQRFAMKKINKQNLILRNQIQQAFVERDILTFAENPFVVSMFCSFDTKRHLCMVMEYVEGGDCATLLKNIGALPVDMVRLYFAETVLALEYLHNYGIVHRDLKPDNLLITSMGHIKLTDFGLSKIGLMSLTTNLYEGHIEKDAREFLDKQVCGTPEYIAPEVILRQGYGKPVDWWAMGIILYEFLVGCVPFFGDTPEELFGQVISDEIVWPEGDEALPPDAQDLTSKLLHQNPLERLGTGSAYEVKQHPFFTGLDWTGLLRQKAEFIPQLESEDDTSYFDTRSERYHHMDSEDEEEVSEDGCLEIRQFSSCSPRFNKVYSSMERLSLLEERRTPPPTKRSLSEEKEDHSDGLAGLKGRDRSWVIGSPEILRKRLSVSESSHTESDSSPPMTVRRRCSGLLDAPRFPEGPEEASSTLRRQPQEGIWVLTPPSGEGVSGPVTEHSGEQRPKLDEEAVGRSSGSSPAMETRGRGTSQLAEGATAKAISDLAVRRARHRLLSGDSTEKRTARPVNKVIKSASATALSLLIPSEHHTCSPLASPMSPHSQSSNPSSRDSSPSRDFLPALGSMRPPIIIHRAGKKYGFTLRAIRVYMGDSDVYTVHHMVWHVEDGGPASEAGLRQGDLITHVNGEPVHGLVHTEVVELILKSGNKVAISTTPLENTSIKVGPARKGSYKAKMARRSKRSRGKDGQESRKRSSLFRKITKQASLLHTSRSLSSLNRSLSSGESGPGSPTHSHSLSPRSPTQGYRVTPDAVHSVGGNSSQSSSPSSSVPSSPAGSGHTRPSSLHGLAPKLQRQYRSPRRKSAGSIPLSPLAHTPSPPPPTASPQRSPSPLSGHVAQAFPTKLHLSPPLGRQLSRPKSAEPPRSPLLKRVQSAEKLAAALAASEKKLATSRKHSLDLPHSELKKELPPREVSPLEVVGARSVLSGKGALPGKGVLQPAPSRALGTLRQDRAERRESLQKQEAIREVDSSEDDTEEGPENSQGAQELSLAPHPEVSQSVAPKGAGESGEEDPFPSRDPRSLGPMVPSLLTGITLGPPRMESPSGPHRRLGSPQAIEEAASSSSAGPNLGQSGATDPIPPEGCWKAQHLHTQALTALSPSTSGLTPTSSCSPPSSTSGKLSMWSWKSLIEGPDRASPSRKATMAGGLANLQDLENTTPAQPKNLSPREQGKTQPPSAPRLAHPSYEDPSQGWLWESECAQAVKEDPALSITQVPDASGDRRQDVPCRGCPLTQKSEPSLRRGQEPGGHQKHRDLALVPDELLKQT

[7] = target: T3, Dual specificity mitogen-activated protein kinase kinase 6 (Homo sapiens) (UniProt P52564); assay: Selectivity interaction (Kinase panel (Invitrogen)) EUB0000639a MAP2K6; details: at 200 nM
T3 sequence (whole entry): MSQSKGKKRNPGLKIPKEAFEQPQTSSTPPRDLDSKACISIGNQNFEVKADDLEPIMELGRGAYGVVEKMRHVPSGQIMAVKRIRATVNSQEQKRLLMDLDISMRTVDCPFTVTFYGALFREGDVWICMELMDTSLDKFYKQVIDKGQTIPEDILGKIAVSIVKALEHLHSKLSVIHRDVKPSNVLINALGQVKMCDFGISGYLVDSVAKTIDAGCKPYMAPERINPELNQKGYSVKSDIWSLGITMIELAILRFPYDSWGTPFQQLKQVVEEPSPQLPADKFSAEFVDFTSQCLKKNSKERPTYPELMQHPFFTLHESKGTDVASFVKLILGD

[8] = target: DNA (cytosine-5)-methyltransferase 1 (Homo sapiens) (UniProt P26358); assay: Selectivity interaction (Transferase panel (protein, RNA, and DNA methyltransferases. and EP300 (acetyltransferase))) EUB0000270b DNMT1
Sequence of DNA (cytosine-5)-methyltransferase 1 (Homo sapiens) (P26358 whole entry): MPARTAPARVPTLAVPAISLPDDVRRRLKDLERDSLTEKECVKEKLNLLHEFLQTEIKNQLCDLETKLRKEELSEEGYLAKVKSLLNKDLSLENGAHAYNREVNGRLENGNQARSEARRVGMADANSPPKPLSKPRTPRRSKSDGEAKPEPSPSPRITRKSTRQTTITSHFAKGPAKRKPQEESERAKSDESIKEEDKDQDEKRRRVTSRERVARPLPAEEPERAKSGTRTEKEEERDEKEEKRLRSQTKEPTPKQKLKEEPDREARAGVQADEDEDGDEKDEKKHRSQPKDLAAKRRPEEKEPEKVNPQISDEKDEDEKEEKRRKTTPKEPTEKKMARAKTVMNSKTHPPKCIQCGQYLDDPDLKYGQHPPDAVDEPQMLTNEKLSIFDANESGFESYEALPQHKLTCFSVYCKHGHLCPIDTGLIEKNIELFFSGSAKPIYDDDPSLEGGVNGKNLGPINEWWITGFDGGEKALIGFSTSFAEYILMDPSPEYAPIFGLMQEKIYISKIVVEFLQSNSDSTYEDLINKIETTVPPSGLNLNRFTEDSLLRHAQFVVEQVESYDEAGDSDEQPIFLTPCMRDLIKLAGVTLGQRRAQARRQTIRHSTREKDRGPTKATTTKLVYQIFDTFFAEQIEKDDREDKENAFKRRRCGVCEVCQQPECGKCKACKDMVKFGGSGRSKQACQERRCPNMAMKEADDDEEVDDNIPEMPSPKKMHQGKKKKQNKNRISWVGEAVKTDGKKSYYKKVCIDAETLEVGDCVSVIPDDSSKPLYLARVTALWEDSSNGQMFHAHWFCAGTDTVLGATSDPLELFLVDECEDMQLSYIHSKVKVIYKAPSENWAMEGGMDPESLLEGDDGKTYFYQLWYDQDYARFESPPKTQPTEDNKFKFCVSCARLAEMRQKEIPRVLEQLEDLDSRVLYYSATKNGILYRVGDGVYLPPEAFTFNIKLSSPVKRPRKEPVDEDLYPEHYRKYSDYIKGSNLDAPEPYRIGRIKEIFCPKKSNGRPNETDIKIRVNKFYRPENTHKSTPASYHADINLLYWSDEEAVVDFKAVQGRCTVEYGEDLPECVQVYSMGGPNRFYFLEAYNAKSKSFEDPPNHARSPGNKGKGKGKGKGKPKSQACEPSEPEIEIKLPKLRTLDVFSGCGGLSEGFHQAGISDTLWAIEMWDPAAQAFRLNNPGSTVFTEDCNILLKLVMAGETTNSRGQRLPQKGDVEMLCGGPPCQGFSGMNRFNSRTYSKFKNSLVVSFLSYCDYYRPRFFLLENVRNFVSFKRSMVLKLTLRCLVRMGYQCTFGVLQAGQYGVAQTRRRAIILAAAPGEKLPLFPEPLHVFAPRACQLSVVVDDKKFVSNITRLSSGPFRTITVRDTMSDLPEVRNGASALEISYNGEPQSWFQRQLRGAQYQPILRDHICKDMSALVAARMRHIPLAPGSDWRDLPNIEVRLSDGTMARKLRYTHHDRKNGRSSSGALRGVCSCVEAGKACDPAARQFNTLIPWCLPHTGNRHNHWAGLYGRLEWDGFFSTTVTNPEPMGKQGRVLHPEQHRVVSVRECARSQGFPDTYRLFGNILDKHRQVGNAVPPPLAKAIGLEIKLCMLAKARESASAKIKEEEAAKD

[9] = target: Fibroblast growth factor receptor 2 (Homo sapiens) (UniProt P21802); assay: Selectivity interaction (ProQinase) EUB0000171b FGFR2
Sequence of Fibroblast growth factor receptor 2 (Homo sapiens) (P21802 22-821 limits assumed): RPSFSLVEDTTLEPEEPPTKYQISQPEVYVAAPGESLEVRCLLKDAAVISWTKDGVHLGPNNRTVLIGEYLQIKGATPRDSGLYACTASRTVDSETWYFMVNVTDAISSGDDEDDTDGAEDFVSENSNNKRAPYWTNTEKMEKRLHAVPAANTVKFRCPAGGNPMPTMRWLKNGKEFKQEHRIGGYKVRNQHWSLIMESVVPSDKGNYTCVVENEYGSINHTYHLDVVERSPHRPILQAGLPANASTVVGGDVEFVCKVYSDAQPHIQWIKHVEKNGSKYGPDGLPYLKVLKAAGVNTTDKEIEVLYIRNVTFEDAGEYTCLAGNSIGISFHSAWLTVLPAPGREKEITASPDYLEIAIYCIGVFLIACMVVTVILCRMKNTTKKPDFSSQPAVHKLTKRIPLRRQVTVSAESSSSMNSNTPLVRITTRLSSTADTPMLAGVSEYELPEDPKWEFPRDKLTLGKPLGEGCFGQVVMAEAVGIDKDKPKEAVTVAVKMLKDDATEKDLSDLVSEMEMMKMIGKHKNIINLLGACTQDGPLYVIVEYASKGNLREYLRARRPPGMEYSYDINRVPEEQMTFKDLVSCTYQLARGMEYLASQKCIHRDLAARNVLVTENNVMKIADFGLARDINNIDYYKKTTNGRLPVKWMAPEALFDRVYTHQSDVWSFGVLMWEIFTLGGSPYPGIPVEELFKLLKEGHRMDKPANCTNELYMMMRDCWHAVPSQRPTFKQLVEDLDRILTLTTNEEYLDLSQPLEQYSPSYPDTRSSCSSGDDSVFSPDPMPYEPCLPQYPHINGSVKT

Compound: CN(C)C/C=C/C(=O)Nc1ccc(C(=O)N2CCCC(Nc3ncc(Cl)c(-c4c[nH]c5ccccc45)n3)C2)cc1 (stereo not given)
- % of control [1]: 99%

Compound: O[C@H]1CC[C@H](Nc2ncc3nc(Nc4c(F)cc(F)cc4F)n([C@H]4CCOC4)c3n2)CC1
- % of control [3]: 98%
- % of control [4]: 52%

Compound: CC(C)(O)[C@H](F)CN1Cc2cc(NC(=O)c3cnn4cccnc34)c(N3CCOCC3)cc2C1=O
- dTM [5]: 0.3 K

Compound: Cc1cc(CN)cc(C)c1-c1ncn(C)c1-c1cncn1C
- % activity ([8]; at 1 µM): > 90%
- % activity ([8]; at 10 µM): > 80%

Compound: C=CC(=O)Nc1cccc(C(=O)Nc2ccc(Nc3cc(-c4[nH]c(SC)nc4C)ccn3)cc2)c1
- % of control ([9]; at 1 µM): 105%
- % of control ([9]; at 5 µM): 87%

More lines, now with the values ahead:

- dTM [2]: 0.3 K
Compound: CN(C(=O)c1cnn2cccnc12)c1cc2c(cc1N1CCOCC1)C(=O)N(C[C@@H](F)C(C)(C)O)C2

- % of inhibition ([6]; at 0.01 µM): -0.4%
- % of inhibition ([6]; at 0.04 µM): -2.4%
- % of inhibition ([6]; at 0.2 µM): -2.5%
- % of inhibition ([6]; at 1 µM): -1.4%
- % of inhibition ([6]; at 5 µM): -30.3%
- % of inhibition [7]: 1.6%
Compound: CC[C@@H]1[C@H](F)C(=O)N[C@@H]1COc1nccc2cc(C(N)=O)c(OC)cc12 [ZIMLOVISERTIB]
